In patent US12415786B2, “Substituted 2-heteroarylaminobenzenes and the salts thereof and their use as herbicidal agents” (Bayer Aktiengesellschaft, priority 2019, dated 2025):

Experiments:
Format in all cases: in vivo
Setaria viridis [1] = assay: Herbicidal pre-emergence action (greenhouse pots), SETVI; conditions: 1280 g/ha, visual scoring after about 3 weeks vs untreated controls
Method in brief: (§1)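 Sandy loam, seeds covered with soil; WP or EC formulation sprayed on soil surface, 600 L/ha water + 0.5% additive; rate 1280 g/ha; greenhouse ~3 wk; visual % effect vs untreated control.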

Lolium rigidum [2] = assay: Herbicidal pre-emergence action (greenhouse pots), LOLRI; conditions: 1280 g/ha, visual scoring after about 3 weeks vs untreated controls
Description: (§2) In the examples and tables below, the following abbreviations are used: • Undesired Plants/Weeds: • ABUTH: Abutilon theophrasti • AGSTE: Agrostis tenuis • AMARE Amaranthus retroflexus • ECHCG: Echinochloa crus-galli • LOLRI: Lolium rigidum • MATIN: Matricaria inodora • POAAN: Poa annua • SETVI: Setaria viridis • STEME: Stellaria media A. Herbicidal Early Post-Emergence Action Seeds of mono- and dicotyledonous weed plants were placed in plastic pots in sandy loam soil (doubly sown with one species each of mono- or dicotyledonous weed plants per pot) and covered with soil. The compounds of the invention, formulated in the form of wettable powders (WP) or as emulsion concentrates (EC), were then applied onto the surface of the covering soil as aqueous suspension or emulsion with addition of 0.5% additive at a water application rate of 600 liters per hectare (converted). After the treatment, the pots were placed in a greenhouse and kept under good growth conditions for the test plants. After about 3 weeks, the effect of the preparations was scored visually in comparison with untreated controls as percentages. For example, 100% activity=the plants have died, 0% activity=like untreated control plants. Tables C1-C8 below show the effects of selected compounds of the general formula (I) according to Table 1 above on various harmful plants and an application rate corresponding to 1280 g/ha, which were obtained by the experimental procedure mentioned above.

Abutilon theophrasti [3] = assay: Herbicidal pre-emergence action (greenhouse pots), ABUTH; conditions: 1280 g/ha, visual scoring after about 3 weeks vs untreated controls
Description: as §2

Poa annua [4] = assay: Herbicidal pre-emergence action (greenhouse pots), POAAN; conditions: 1280 g/ha, visual scoring after about 3 weeks vs untreated controls
Method in brief: as §1

Echinochloa crus-galli [5] = assay: Herbicidal post-emergence action (greenhouse pots), ECHCG; conditions: 1280 g/ha, rated after about 3 weeks, 100% = plants have died, 0% = like untreated control plants
Method in brief: (§3)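 Weeds were sown in sandy loam and treated at the one-leaf stage, 2–3 weeks after sowing. WP or EC formulations were applied with 0.5% additive at 600 L/ha water, at a rate of 1280 g/ha. Activity was rated visually after about 3 weeks against untreated controls (0% = untreated, 100% = dead).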

Agrostis tenuis = assay: Herbicidal early post-emergence action (96-well microtiter plates), AGSTE; conditions: 1900 g/ha, scored 9 to 12 days after treatment, 100% = plants have died, 0% = like untreated control plants
Method in brief: (§4)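 Weed seeds grown in quartz sand in 96-well microtiter plates in a climate chamber and treated at the cotyledon stage, 5 to 7 days after sowing, with EC formulations at 2200 L/ha water and a rate equivalent to 1900 g/ha. Visual scoring after 9 to 12 days against untreated controls (0% = control, 100% = dead).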

Setaria viridis [6] = assay: Herbicidal post-emergence action (greenhouse pots), SETVI; conditions: 1280 g/ha, rated after about 3 weeks, 100% = plants have died, 0% = like untreated control plants
Method in brief: as §3

Lolium rigidum [7] = assay: Herbicidal post-emergence action (greenhouse pots), LOLRI; conditions: 1280 g/ha, rated after about 3 weeks, 100% = plants have died, 0% = like untreated control plants
Description: (§5) In the examples and tables below, the following abbreviations are used: • Undesired Plants/Weeds: • ABUTH: Abutilon theophrasti • AGSTE: Agrostis tenuis • AMARE Amaranthus retroflexus • ECHCG: Echinochloa crus-galli • LOLRI: Lolium rigidum • MATIN: Matricaria inodora • POAAN: Poa annua • SETVI: Setaria viridis • STEME: Stellaria media A. Herbicidal Early Post-Emergence Action Seeds of mono- and dicotyledonous weed plants were placed in plastic pots in sandy loam soil (doubly sown with in each case one species of mono- or dicotyledonous weed plants per pot), covered with soil and cultivated in a greenhouse under controlled growth conditions. 2 to 3 weeks after sowing, the test plants were treated at the one-leaf stage. The compounds of the invention, formulated in the form of wettable powders (WP) or as emulsion concentrates (EC), were applied onto the green parts of the plants as aqueous suspension or emulsion with addition of 0.5% additive at a water application rate of 600 liters per hectare (converted). After the test plants had been kept in the greenhouse under optimum growth conditions for about 3 weeks, the activity of the preparations was rated visually in comparison to untreated controls. For example, 100% activity=the plants have died, 0% activity=like untreated control plants. Tables B1-B8 below show the effects of selected compounds of the general formula (I) according to Table 1 above on various harmful plants and an application rate corresponding to 1280 g/ha, which were obtained by the experimental procedure mentioned above.

Stellaria media [8] = assay: Herbicidal pre-emergence action (greenhouse pots), STEME; conditions: 1280 g/ha, visual scoring after about 3 weeks vs untreated controls
Method in brief: as §1

Amaranthus retroflexus [9] = assay: Herbicidal pre-emergence action (greenhouse pots), AMARE; conditions: 1280 g/ha, visual scoring after about 3 weeks vs untreated controls
Method in brief: as §1

Matricaria inodora [10] = assay: Herbicidal pre-emergence action (greenhouse pots), MATIN; conditions: 1280 g/ha, visual scoring after about 3 weeks vs untreated controls
Method in brief: as §1

Stellaria media [11] = assay: Herbicidal post-emergence action (greenhouse pots), STEME; conditions: 1280 g/ha, visual rating about 3 weeks after treatment vs untreated controls
Method in brief: as §3

Abutilon theophrasti [12] = assay: Herbicidal post-emergence action (greenhouse pots), ABUTH; conditions: 1280 g/ha, visual rating about 3 weeks after treatment vs untreated controls
Method in brief: as §3

Poa annua [13] = assay: Herbicidal post-emergence action (greenhouse pots), POAAN; conditions: 1280 g/ha, visual rating about 3 weeks after treatment vs untreated controls
Method in brief: as §3

Poa annua [14] = assay: Herbicidal early post-emergence action (96-well microtiter plates), POAAN; conditions: 1900 g/ha, scored 9 to 12 days after treatment, 100% = plants have died, 0% = like untreated control plants
Method in brief: as §4

Amaranthus retroflexus [15] = assay: Herbicidal post-emergence action (greenhouse pots), AMARE; conditions: 1280 g/ha, visual rating about 3 weeks after treatment vs untreated controls
Method in brief: as §3

Matricaria inodora [16] = assay: Herbicidal post-emergence action (greenhouse pots), MATIN; conditions: 1280 g/ha, visual rating about 3 weeks after treatment vs untreated controls
Description: as §5

Echinochloa crus-galli [17] = assay: Herbicidal pre-emergence action (greenhouse pots), ECHCG; conditions: 1280 g/ha, visual scoring after about 3 weeks vs untreated controls
Method in brief: as §1

N#Cc1cccc(Nc2ncc(Cl)cn2)c1Oc1ccc(F)cc1 [Example 1-286]
herbicidal activity SETVI (Setaria viridis [1]): 100% | herbicidal activity LOLRI (Lolium rigidum [2]): 90% | herbicidal activity ABUTH (Abutilon theophrasti [3]): 90% | herbicidal activity POAAN (Poa annua [4]): 100% | ECHCG (herbicidal activity, rated visually in comparison to untreated controls) (Echinochloa crus-galli [5]): 100% | AGSTE (herbicidal activity, scored visually in comparison to untreated controls) (Agrostis tenuis): 100% | SETVI (herbicidal activity, rated visually in comparison to untreated controls) (Setaria viridis [6]): 100% | LOLRI (herbicidal activity, rated visually in comparison to untreated controls) (Lolium rigidum [7]): 90% | herbicidal activity STEME (Stellaria media [8]): 100% | herbicidal activity AMARE (Amaranthus retroflexus [9]): 100% | herbicidal activity MATIN (Matricaria inodora [10]): 100% | herbicidal activity STEME (Stellaria media [11]): 100% | herbicidal activity ABUTH (Abutilon theophrasti [12]): 100% | herbicidal activity POAAN (Poa annua [13]): 100% | POAAN (herbicidal activity, scored visually in comparison to untreated controls) (Poa annua [14]): 100% | herbicidal activity AMARE (Amaranthus retroflexus [15]): 100%

N#Cc1cccc(Nc2ncc(F)cn2)c1Oc1ccc(F)c(F)c1F [Example 1-374]
herbicidal activity SETVI (Setaria viridis [1]): 100% | herbicidal activity POAAN (Poa annua [4]): 100% | ECHCG (herbicidal activity, rated visually in comparison to untreated controls) (Echinochloa crus-galli [5]): 100% | herbicidal activity MATIN (Matricaria inodora [16]): 100% | AGSTE (herbicidal activity, scored visually in comparison to untreated controls) (Agrostis tenuis): 100% | herbicidal activity ECHCG (Echinochloa crus-galli [17]): 100% | herbicidal activity STEME (Stellaria media [8]): 100% | herbicidal activity AMARE (Amaranthus retroflexus [9]): 100% | herbicidal activity MATIN (Matricaria inodora [10]): 100% | herbicidal activity STEME (Stellaria media [11]): 100% | herbicidal activity ABUTH (Abutilon theophrasti [12]): 100% | herbicidal activity POAAN (Poa annua [13]): 100% | POAAN (herbicidal activity, scored visually in comparison to untreated controls) (Poa annua [14]): 100% | herbicidal activity AMARE (Amaranthus retroflexus [15]): 100%

N#Cc1cccc(Nc2ncc(F)cn2)c1Oc1ccc(F)nc1 [Example 3-53]
herbicidal activity SETVI (Setaria viridis [1]): 100% | herbicidal activity LOLRI (Lolium rigidum [2]): 100% | herbicidal activity ABUTH (Abutilon theophrasti [3]): 100% | herbicidal activity POAAN (Poa annua [4]): 100% | ECHCG (herbicidal activity, rated visually in comparison to untreated controls) (Echinochloa crus-galli [5]): 100% | herbicidal activity MATIN (Matricaria inodora [16]): 90% | AGSTE (herbicidal activity, scored visually in comparison to untreated controls) (Agrostis tenuis): 100% | herbicidal activity ECHCG (Echinochloa crus-galli [17]): 100% | SETVI (herbicidal activity, rated visually in comparison to untreated controls) (Setaria viridis [6]): 90% | LOLRI (herbicidal activity, rated visually in comparison to untreated controls) (Lolium rigidum [7]): 90% | herbicidal activity STEME (Stellaria media [8]): 100% | herbicidal activity AMARE (Amaranthus retroflexus [9]): 100% | herbicidal activity MATIN (Matricaria inodora [10]): 100% | herbicidal activity STEME (Stellaria media [11]): 100% | herbicidal activity ABUTH (Abutilon theophrasti [12]): 100% | herbicidal activity POAAN (Poa annua [13]): 100% | POAAN (herbicidal activity, scored visually in comparison to untreated controls) (Poa annua [14]): 100% | herbicidal activity AMARE (Amaranthus retroflexus [15]): 100%

N#Cc1cccc(Nc2ncc(Cl)cn2)c1Oc1ccc(F)nc1 [Example 3-55]
herbicidal activity SETVI (Setaria viridis [1]): 100% | herbicidal activity LOLRI (Lolium rigidum [2]): 100% | herbicidal activity ABUTH (Abutilon theophrasti [3]): 100% | herbicidal activity POAAN (Poa annua [4]): 100% | herbicidal activity MATIN (Matricaria inodora [16]): 90% | AGSTE (herbicidal activity, scored visually in comparison to untreated controls) (Agrostis tenuis): 100% | herbicidal activity ECHCG (Echinochloa crus-galli [17]): 100% | SETVI (herbicidal activity, rated visually in comparison to untreated controls) (Setaria viridis [6]): 90% | LOLRI (herbicidal activity, rated visually in comparison to untreated controls) (Lolium rigidum [7]): 90% | herbicidal activity STEME (Stellaria media [8]): 100% | herbicidal activity AMARE (Amaranthus retroflexus [9]): 100% | herbicidal activity MATIN (Matricaria inodora [10]): 100% | herbicidal activity STEME (Stellaria media [11]): 100% | herbicidal activity ABUTH (Abutilon theophrasti [12]): 100% | herbicidal activity POAAN (Poa annua [13]): 100% | POAAN (herbicidal activity, scored visually in comparison to untreated controls) (Poa annua [14]): 100% | herbicidal activity AMARE (Amaranthus retroflexus [15]): 100%
